The results in this text go back to article PMC3382171 (PLoS ONE, 2012).

What all share (test): biochemical
Parameters in all cases: University of Dundee kinase panel, percent inhibition of phosphorylation at 1 uM RAFi, ATP at Km
Holding throughout (conditions): read-out: Dundee KSS %inh at 1 uM

For one experiment, the target named is T1, JNK2 (Homo sapiens, UniProt P45984).
T1 construct: gene MAPK9
As for the experimental part: (§1) The METi and RAFi were screened against kinase panels (SelectScreen, Invitrogen; University of Dundee, Division of Signal Transduction Therapy, UK; Upstate Biotechnology/Millipore, Billerica, MA). In these selectivity assays the concentration of ATP was set to the Km value of ATP for each kinase tested to allow for a relative potency comparison between the various kinases. The compounds were tested at 1 µM final concentration. […] Supplementary file pone.0039653.s002.pdf: Figure S2 Kinase Selectivity Screen of RAFi. (A) Kinase selectivity screen (KSS) performed at University of Dundee (Division of Signal Transduction Therapy). Values in % inhibition of phosphorylation given 1 µM of RAFi compared to control. (B) KSS performed at Invitrogen (Selectscreen Service) compared to control. Values in % inhibition of phosphorylation given 1 µM of RAFi. (C) Cell based dose response kinase inhibition of indicated kinases by RAFi. (PDF) Click here for additional data file.

In a further experiment the target is PLK1 (Homo sapiens, UniProt P53350). The procedure:
as §1

The target of the next experiment is T2, JNK1a (Homo sapiens, UniProt P45983).
T2 construct: gene MAPK8; isoform alpha
As for the experimental part: as §1

Another experiment deals with CDK2 (Homo sapiens, UniProt P24941). The procedure: as §1
A further experiment has as its target NEK6 (Homo sapiens, UniProt Q9HC98). The procedure: as §1
Another experiment concerns the target T3, SGK (Homo sapiens, UniProt O00141).
T3 construct: gene SGK1
As for the experimental part:
as §1

The next experiment has as its target T4, MNK2 (Homo sapiens, UniProt Q9HBH9).
T4 construct: gene MKNK2
The procedure: as §1

Another experiment addresses PIM3 (Homo sapiens, UniProt Q86V86). As for the experimental part:
as §1

A further experiment concerns the target T5, MST2 (Homo sapiens, UniProt Q13188).
T5 construct: gene STK3
The procedure:
as §1

A further experiment deals with NEK2 (Homo sapiens, UniProt P51955). As for the experimental part:
as §1

A further experiment has as its target T6, MNK1 (Homo sapiens, UniProt Q9BUB5).
T6 construct: gene MKNK1
The procedure: as §1

The target in the next experiment is T7, PLK1preactivated (Homo sapiens, UniProt P53350).
T7 construct: gene PLK1
T7 sequence (P53350 whole entry): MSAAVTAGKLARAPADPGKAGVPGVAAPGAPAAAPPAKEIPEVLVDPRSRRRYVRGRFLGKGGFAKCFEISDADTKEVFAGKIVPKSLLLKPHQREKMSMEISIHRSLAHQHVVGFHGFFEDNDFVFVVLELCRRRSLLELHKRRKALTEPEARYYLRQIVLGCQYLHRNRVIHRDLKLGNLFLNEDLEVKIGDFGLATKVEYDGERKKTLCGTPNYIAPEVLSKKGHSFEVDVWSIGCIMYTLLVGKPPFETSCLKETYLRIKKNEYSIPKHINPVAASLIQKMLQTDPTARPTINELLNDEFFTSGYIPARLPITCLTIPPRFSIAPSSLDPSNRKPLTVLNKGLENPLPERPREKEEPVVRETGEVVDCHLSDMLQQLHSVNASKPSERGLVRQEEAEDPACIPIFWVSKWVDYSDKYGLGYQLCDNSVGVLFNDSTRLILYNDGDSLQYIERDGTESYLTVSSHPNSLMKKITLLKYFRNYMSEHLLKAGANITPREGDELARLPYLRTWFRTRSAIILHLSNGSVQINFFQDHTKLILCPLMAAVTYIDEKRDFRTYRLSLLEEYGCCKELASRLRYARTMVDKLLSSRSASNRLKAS
The procedure:
as §1

In the next experiment the target is T8, p38d (Homo sapiens, UniProt O15264).
T8 construct: gene MAPK13
T8 sequence (O15264 whole entry): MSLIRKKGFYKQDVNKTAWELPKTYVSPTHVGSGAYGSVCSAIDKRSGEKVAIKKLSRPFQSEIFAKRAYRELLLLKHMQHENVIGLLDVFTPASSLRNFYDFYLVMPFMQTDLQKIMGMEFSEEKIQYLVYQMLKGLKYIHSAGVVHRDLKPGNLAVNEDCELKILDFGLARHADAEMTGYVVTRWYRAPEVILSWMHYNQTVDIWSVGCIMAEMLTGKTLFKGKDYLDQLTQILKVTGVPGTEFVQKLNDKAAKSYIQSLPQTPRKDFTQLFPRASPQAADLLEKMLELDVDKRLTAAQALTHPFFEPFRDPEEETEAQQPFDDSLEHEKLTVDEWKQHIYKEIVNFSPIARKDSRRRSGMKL
The procedure:
as §1

In a further experiment the target is T9, PKCa (Homo sapiens, UniProt P17252).
T9 construct: gene PRKCA
The procedure:
as §1

Another experiment addresses mouse LCK (Mus musculus, UniProt P06240). The procedure: as §1
The target of a further experiment is T10, rat ROCKII (Rattus norvegicus, UniProt Q62868).
T10 construct: gene Rock2
T10 sequence (Q62868 whole entry): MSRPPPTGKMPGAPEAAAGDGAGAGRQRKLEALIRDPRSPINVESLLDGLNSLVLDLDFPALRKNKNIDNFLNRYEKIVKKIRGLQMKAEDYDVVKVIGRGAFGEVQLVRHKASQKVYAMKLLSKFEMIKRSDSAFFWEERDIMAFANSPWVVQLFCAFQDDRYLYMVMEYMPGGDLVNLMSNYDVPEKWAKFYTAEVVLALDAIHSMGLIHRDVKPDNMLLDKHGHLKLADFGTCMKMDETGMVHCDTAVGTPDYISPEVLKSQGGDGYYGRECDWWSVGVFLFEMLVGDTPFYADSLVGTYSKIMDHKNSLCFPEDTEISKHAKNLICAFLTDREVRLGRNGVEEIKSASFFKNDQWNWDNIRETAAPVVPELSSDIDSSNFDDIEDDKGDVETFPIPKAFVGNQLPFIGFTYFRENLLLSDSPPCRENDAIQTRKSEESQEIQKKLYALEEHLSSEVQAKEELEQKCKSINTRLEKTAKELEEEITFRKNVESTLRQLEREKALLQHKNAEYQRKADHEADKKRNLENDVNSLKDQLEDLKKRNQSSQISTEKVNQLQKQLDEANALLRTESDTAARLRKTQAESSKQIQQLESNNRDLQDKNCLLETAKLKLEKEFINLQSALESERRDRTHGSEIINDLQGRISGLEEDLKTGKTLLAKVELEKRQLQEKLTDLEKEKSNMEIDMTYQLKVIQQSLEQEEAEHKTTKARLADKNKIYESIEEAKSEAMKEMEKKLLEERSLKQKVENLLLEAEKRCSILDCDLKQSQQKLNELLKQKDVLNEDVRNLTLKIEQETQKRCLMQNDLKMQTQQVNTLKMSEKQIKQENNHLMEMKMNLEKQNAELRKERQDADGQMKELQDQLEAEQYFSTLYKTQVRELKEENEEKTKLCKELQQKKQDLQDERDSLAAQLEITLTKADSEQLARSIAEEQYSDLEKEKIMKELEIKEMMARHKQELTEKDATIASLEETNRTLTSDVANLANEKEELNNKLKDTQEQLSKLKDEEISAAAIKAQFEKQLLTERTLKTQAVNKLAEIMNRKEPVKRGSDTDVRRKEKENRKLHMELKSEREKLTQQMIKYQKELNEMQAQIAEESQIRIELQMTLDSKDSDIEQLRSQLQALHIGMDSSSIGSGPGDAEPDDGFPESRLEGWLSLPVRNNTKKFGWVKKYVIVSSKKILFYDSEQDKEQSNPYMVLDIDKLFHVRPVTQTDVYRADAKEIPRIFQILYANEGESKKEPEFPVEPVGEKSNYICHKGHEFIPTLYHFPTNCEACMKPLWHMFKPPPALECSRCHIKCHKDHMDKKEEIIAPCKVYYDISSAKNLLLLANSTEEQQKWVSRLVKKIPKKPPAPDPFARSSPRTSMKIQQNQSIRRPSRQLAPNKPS
As for the experimental part: as §1

The next experiment addresses AKT2 (Homo sapiens, UniProt P31751). The procedure:
as §1

The target in a further experiment is T11, mouse ERK2 (Mus musculus, UniProt P63085).
T11 construct: gene Mapk1
As for the experimental part: as §1

Another experiment deals with T12, PKD1 (Homo sapiens, UniProt Q15139).
T12 construct: gene PRKD1
T12 sequence (Q15139 whole entry): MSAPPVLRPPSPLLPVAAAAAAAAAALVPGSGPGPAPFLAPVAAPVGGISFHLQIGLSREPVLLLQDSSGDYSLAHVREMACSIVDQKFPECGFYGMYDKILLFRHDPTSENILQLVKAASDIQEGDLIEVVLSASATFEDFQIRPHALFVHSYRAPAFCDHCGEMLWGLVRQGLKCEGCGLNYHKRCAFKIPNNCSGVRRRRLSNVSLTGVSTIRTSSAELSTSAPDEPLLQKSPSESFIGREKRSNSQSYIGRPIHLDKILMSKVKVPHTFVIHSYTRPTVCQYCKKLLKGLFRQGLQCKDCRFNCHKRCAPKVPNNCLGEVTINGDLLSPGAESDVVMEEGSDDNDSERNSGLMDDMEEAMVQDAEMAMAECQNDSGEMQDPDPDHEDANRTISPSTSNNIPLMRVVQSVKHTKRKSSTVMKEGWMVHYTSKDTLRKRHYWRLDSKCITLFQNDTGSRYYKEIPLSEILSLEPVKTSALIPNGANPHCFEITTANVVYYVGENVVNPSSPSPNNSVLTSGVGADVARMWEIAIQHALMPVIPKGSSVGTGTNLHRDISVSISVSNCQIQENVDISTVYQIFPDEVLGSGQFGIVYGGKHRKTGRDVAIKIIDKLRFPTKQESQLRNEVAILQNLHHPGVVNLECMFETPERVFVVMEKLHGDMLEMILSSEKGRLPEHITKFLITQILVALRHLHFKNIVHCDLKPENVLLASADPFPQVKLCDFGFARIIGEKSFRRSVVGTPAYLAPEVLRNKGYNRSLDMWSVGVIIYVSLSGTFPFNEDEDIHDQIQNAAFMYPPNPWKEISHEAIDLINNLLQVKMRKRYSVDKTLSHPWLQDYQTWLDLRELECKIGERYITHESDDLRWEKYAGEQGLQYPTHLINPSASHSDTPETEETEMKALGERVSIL
As for the experimental part: as §1

For the next experiment, the target named is T13, IKKb (Homo sapiens, UniProt O14920).
T13 construct: gene IKBKB
As for the experimental part:
as §1

NEK6, sequence (Q9HC98 whole entry): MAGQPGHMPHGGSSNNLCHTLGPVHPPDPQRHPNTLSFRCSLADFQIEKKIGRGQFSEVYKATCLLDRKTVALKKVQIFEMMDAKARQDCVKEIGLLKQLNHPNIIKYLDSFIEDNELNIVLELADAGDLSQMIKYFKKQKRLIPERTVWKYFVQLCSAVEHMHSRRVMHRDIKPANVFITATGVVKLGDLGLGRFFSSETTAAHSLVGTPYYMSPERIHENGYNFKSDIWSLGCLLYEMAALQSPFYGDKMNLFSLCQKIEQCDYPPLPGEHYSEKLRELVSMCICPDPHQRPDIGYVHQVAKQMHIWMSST
mouse LCK, sequence (P06240 whole entry): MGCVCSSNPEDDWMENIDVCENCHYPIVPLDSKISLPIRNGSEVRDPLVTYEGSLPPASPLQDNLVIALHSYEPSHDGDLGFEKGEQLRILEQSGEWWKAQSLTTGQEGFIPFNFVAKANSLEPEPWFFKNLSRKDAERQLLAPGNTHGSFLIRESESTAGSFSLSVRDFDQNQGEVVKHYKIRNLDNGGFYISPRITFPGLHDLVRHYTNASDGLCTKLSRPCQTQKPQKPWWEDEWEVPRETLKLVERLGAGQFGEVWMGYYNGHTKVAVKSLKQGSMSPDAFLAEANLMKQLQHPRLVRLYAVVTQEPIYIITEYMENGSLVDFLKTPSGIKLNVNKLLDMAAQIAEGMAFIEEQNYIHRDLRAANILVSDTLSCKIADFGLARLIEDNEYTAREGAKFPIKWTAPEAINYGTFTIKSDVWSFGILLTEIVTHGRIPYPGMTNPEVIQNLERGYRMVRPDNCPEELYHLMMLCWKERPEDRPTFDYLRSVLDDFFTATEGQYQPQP
T5 sequence (Q13188 whole entry): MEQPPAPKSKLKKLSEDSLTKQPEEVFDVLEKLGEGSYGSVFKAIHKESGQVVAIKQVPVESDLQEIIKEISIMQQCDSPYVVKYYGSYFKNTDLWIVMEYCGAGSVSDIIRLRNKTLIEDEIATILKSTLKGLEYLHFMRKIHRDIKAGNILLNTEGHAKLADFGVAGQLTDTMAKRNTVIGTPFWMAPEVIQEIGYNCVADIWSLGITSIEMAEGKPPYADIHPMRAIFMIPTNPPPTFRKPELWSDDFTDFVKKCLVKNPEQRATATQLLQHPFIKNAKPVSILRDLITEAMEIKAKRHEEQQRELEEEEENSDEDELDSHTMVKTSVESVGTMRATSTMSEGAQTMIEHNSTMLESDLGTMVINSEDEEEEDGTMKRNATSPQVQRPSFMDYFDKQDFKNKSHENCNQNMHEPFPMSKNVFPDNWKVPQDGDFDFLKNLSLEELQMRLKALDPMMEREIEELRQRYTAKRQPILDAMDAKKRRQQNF
PLK1, sequence (P53350 whole entry): as the sequence (P53350 whole entry) above
T1 sequence (P45984 whole entry): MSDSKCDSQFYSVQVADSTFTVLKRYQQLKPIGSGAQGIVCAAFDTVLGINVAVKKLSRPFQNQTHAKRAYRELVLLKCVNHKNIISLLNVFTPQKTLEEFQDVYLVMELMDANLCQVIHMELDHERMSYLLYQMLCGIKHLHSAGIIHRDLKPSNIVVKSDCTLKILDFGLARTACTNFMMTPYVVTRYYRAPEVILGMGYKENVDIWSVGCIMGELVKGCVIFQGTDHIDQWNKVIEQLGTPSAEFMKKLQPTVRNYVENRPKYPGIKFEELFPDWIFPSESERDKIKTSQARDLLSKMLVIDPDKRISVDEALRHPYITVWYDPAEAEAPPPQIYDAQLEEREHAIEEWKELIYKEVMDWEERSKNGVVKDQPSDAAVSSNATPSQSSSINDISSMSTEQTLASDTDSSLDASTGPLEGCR

Regarding `N#CCCNc1nccc(-c2cn(CC(F)F)nc2-c2cnc3[nH]ccc3c2)n1` [RAFi, PF-04880594], the inhibition at 1 µM on JNK2 is 95%; on PLK1, 47%; on JNK1a, 62%; on CDK2 it was 38%; on NEK6, 13%; at SGK, 4%. The inhibition at 1 µM was determined as 12% at MNK2; 3% at PIM3; 63% on MST2; 73% at NEK2; 7% on MNK1; 64% on PLK1preactivated. The inhibition at 1 µM is 9% at p38d; 53% on PKCa; 22% on mouse LCK; 25% on rat ROCKII; 28% at AKT2; 48% on mouse ERK2. Also, the inhibition at 1 µM came to 47% at PKD1 and 4% on IKKb.
